# Structures can show the parent of a compound that is named as a salt.
# Tested on: OVCAR-8 cells
# Assay: Drug-siRNA combination screen: 346-compound anticancer library at 100 nM, CCK-8 viability
# Details: not given
row,Compound,Score (sum of observed SD values for 18 genes) [SD]
1,CC[C@H](CO)Nc1nc(NCc2ccccc2)c2ncn(C(C)C)c2n1 [Seliciclib],−1.72
2,CCCC(=O)[O-].[Na+] [Sodium butyrate],−16.25
3,Maraviroc,0.11

# Same assay, conditions: OVCAR-8; 12 tested HDACi
row,Compound,number of tested HDACi highly synergistic with the gene knockdown
1,"AXL: siRNA knocking down AXL; sense CAGCGAGAUUUAUGACUAUtt (SEQ ID NO 15) (sense CAGCGAGAUUUAUGACUAUNN; antisense AUAGUCAUAAAUCUCGCUGNN; listed as RNA, chemistry not given here)",at least six
2,"KLHL5: siRNA knocking down KLHL5; sense CAGGCCGCCUUGAAUUAAAtt (SEQ ID NO 23) (sense CAGGCCGCCUUGAAUUAAANN; antisense UUUAAUUCAAGGCGGCCUGNN; listed as RNA, chemistry not given here)",at least six
3,S100A11: siRNA knocking down S100A11; sense GAACUAGCUGCCUUCACAAtt (SEQ ID NO 27) (sense GAACUAGCUGCCUUCACAANN; antisense UUGUGAAGGCAGCUAGUUCNN; chemistry not given here),10 of 12

# Same assay, conditions: OVCAR-8; 346 compounds
row,Compound,number of antagonistic/additive or highly antagonistic compounds with the gene knockdown
1,"AXL: siRNA knocking down AXL; sense CAGCGAGAUUUAUGACUAUtt (SEQ ID NO 15) (sense CAGCGAGAUUUAUGACUAUNN; antisense AUAGUCAUAAAUCUCGCUGNN; listed as RNA, chemistry not given here)",Twelve or fewer
2,"KLHL5: siRNA knocking down KLHL5; sense CAGGCCGCCUUGAAUUAAAtt (SEQ ID NO 23) (sense CAGGCCGCCUUGAAUUAAANN; antisense UUUAAUUCAAGGCGGCCUGNN; listed as RNA, chemistry not given here)",Twelve or fewer

# Same assay, conditions: OVCAR-8; drug 100 nM plus siRNA knockdown of each of 18 genes; distance VAB−VA×VB in SD; single gene contributes at most +5 / −5; negative = synergy, positive = antagonism
row,Compound,Score (sum of observed SD values for 18 genes) [SD]
1,Cc1ccc(C(=O)N(CCCN)[C@@H](c2oc3cc(Cl)ccc3c(=O)c2Cc2ccccc2)C(C)C)cc1 [SB 743921],−4.09
2,CN1CCC(CNc2ccc3ncc(-c4cccc(OC(F)(F)F)c4)n3n2)CC1 [SGI - 1776],−12.21
3,Cn1cc(-c2ccc3nnc(Sc4ccc5ncccc5c4)n3n2)cn1 [SGX-523],−8.5
4,CC(C)(C)c1cnc(CSc2cnc(NC(=O)C3CCNCC3)s2)o1 [SNS-032],-62.71
5,O=C(Nc1ccccc1-c1cn2c(CN3CCNCC3)csc2n1)c1cnc2ccccc2n1 [SRT1720],−34.27
6,Cc1cccc(Nc2nc(-c3ccncc3)cs2)c1 [STF-62247],−24.47
7,Cc1[nH]c(/C=C2\C(=O)Nc3ccc(S(=O)(=O)N(C)c4cccc(Cl)c4)cc32)c(C)c1C(=O)N1CCN(C)CC1 [SU11274],−0.42
8,CC[C@@H](C(=O)[C@@H](C)[C@@H](O)[C@H](C)[C@@H]1O[C@@H]([C@@H](CC)C(=O)O)CC[C@@H]1C)[C@H]1O[C@]2(C=C[C@@H](O)[C@]3(CC[C@@](C)([C@H]4CC[C@](O)(CC)[C@H](C)O4)O3)O2)[C@H](C)C[C@@H]1C [Salinomycin],−21.61
9,CN1CCN(CCOc2cc(OC3CCOCC3)c3c(Nc4c(Cl)ccc5c4OCO5)ncnc3c2)CC1 [Saracatinib],-53.14
10,Cn1cnc2c(F)c(Nc3ccc(Br)cc3Cl)c(C(=O)NOCCO)cc21 [Selumetinib],-63.99
11,c1ccc2c(CCNc3ccc(Nc4ccncc4)cc3)c[nH]c2c1 [Serdemetan],−29.35
12,O=C(O)c1ccc2c(c1)nc(Nc1cccc(Cl)c1)c1ccncc12 [Silmitasertib],−4.51
13,CCC(C)(C)C(=O)O[C@H]1C[C@@H](C)C=C2C=C[C@H](C)[C@H](CC[C@@H]3C[C@@H](O)CC(=O)O3)[C@H]21 [Simvastatin],−20.34
14,CC(NC(=O)c1ccccc1/N=C/c1c(O)ccc2ccccc12)c1ccccc1 (stereo not drawn) [Sirtinol],−2.18
15,CCCC(CCC)C(=O)[O-].[Na+] [Sodium valproate],−17.88
16,CN1CCN(c2nc(C3=C(c4c[nH]c5ccccc45)C(=O)NC3=O)c3ccccc3n2)CC1 [Sotrastaurin],−16.11
17,COc1cc(N2CCC(N3CCN(C)CC3)CC2)ccc1Nc1ncc(Cl)c(Nc2ccccc2S(=O)(=O)C(C)C)n1 [TAE684],−35.61
18,Cn1c(=O)c(F)c(Nc2ccc(I)cc2F)c2c(=O)n(C[C@@H](O)CO)cnc21 [TAK-733],−40.08
19,NC(=O)Nc1sc(-c2ccc(F)cc2)cc1C(N)=O [TPCA-1],4.7
20,CC(C)c1ccccc1Cc1cc(C(=O)Nc2ccc(S(=O)(=O)c3ccccc3C(C)(C)C)cc2)c(O)c(O)c1O [TW-37],−36.72
21,COc1cc2c(N3CCN(C(=O)Nc4ccc(OC(C)C)cc4)CC3)ncnc2cc1OCCCN1CCCCC1 [Tandutinib],−14.99
22,CNC(=O)c1cc(COc2nnc(Nc3ccc(Cl)cc3)c3ccoc23)ccn1 [Telatinib],−5.24
23,CO[C@H]1C[C@@H]2CC[C@@H](C)[C@@](O)(O2)C(=O)C(=O)N2CCCC[C@H]2C(=O)O[C@H]([C@H](C)C[C@@H]2CC[C@@H](OC(=O)C(C)(CO)CO)[C@H](OC)C2)CC(=O)[C@H](C)/C=C(\C)[C@@H](O)[C@@H](OC)C(=O)[C@H](C)C[C@H](C)/C=C/C=C/C=C/1C [Temsirolimus],-56.85
24,COc1cc2nccc(Oc3ccc(NC(=O)Nc4cc(C)on4)c(Cl)c3)c2cc1OC [Tivozanib],−16.34
25,C[C@@H]1CCN(C(=O)CC#N)C[C@@H]1N(C)c1ncnc2[nH]ccc12 [Tofacitinib],−13.15
26,CN(C)CCOc1ccc(/C(=C(/CCCl)c2ccccc2)c2ccccc2)cc1 [Toremifene Citrate],−22.88
27,CCC(=O)N1CCN(c2ccc(-n3c(=O)ccc4cnc5ccc(-c6cnc7ccccc7c6)cc5c43)cc2C(F)(F)F)CC1 [Torin 1],−32.55

row,Compound,Score (sum of observed SD values for 18 genes) [SD]
1,Nc1ccc(-c2ccc3ncc4ccc(=O)n(-c5cccc(C(F)(F)F)c5)c4c3c2)cn1 [Torin 2],−37.17
2,CC(C)C[C@@H](C(=O)N[C@H](C(=O)OC1CCCC1)c1ccccc1)[C@H](O)C(=O)NO [Tosedostat],5.66
3,Cc1cc(Nc2cc(N3CCN(C)CC3)nc(Sc3ccc(NC(=O)C4CC4)cc3)n2)[nH]n1 [Tozasertib],−4.08
4,CC(=O)Nc1cccc(-n2c(=O)n(C3CC3)c(=O)c3c(Nc4ccc(I)cc4F)n(C)c(=O)c(C)c32)c1 [Trametinib],−27.77
5,C[C@]12C=CC(=O)C=C1CC[C@H]1[C@@H]3C[C@@H](O)[C@](O)(C(=O)CO)[C@@]3(C)C[C@H](O)[C@@]12F [Triamcinolone],−26.66
6,CC(/C=C/C(=O)NO)=C\[C@@H](C)C(=O)c1ccc(N(C)C)cc1 [Trichostatin A],−38.93
7,CC(C)[C@]12O[C@H]1[C@@H]1O[C@]13[C@]1(O[C@H]1C[C@H]1C4=C(CC[C@@]13C)C(=O)OC4)[C@@H]2O [Triptolide],−15.95
8,CC(C)C[C@H](NC(=O)[C@@H](O)[C@H](N)Cc1ccccc1)C(=O)O [Ubinimex],−17.36
9,Cc1ccc2c(=O)c3cccc(CC(=O)O)c3oc2c1C [Vadimezan],−28.75
10,Cl.Cl.Clc1ccc(Nc2nnc(Cc3ccncc3)c3ccccc23)cc1 [Vatalanib 2HCI],−3.51
11,CCOC(=O)C1=C[C@]2(CC)CCCN3CCc4c(n1c1ccccc41)[C@@H]32 [Vinpocetine],−1.42
12,CC[C@@H]1C(=O)N(C)c2cnc(Nc3ccc(C(=O)N[C@H]4CC[C@H](N5CCN(CC6CC6)CC5)CC4)cc3OC)nc2N1C(C)C [Volasertib],10.79
13,CC(C)OC(=O)C1=CN(C(=O)c2ccc(F)c(F)c2)CC(C)(C)c2c1[nH]c1ccccc21 [WAY-362450],−29.97
14,CCC[C@H](NC(=O)/C(C#N)=C/c1cccc(Br)n1)c1ccccc1 [WP1130],3.15
15,C=CC(=O)Nc1cccc(Oc2nc(Nc3ccc(N4CCN(C)CC4)cc3OC)ncc2Cl)c1 [WZ4002],−41.61
16,Oc1nc(-c2ccc(C(F)(F)F)cc2)nc2c1CSCC2 [XAV-939],−29.25
17,COc1ccc(Cl)c(Nc2nc3ccccc3nc2NS(=O)(=O)c2cccc(NC(=O)C(C)(C)N)c2)c1 [XL147],−30.94
18,CCn1c(=O)c(-c2cc[nH]n2)cc2c(C)nc(N)nc21 [XL765],−10.06
19,C[C@@H](N)[C@H]1CC[C@H](C(=O)Nc2ccncc2)CC1.Cl.Cl [Y-27632 2HCI],−28.91
20,COCCn1c2c([n+](Cc3cnccn3)c1C)C(=O)c1ccccc1C2=O [YM155],−1.58
21,Nc1ccc(C(=O)Nc2cccc(-c3nc(N4CCOCC4)c4oc5ncccc5c4n3)c2)cn1 [YM201636],−32.89
22,FC(F)c1nc2ccccc2n1-c1nc(N2CCOCC2)nc(N2CCOCC2)n1 [ZSTK474],-52.94
23,COc1nc(C)cnc1NS(=O)(=O)c1cccnc1-c1ccc(-c2nnco2)cc1 [Zibotentan],10.07
24,CC(c1cc2ccccc2s1)N(O)C(N)=O (stereo not drawn) [Zileuton],−19.64
25,AZ 3146,−22.56
26,Medroxyprogesterone,−35.82

# Same assay, conditions: OVCAR-8; drug 100 nM; panel of 18 siRNA knockdowns
row,Compound,"synergy / antagonism of drug with gene knockdowns, in words"
1,CC(C)(C)c1cnc(CSc2cnc(NC(=O)C3CCNCC3)s2)o1 [SNS-032],strong synergies with multiple genes
2,CC(/C=C/C(=O)NO)=C\[C@@H](C)C(=O)c1ccc(N(C)C)cc1 [Trichostatin A],mostly synergistic
3,FC(F)c1nc2ccccc2n1-c1nc(N2CCOCC2)nc(N2CCOCC2)n1 [ZSTK474],synergy to the vast majority of genes

# Same assay, conditions: OVCAR-8; drug 100 nM; siRNA knockdown
row,Compound,number of genes (of 18) whose knockdown synergizes with the drug [genes]
1,Cn1cnc2c(F)c(Nc3ccc(Br)cc3Cl)c(C(=O)NOCCO)cc21 [Selumetinib],16

# Same assay, conditions: OVCAR-8; eleven tested inhibitors
row,Compound,number of Aurora Kinase inhibitors with significant synergy with the gene knockdown
1,"KLHL5: siRNA knocking down KLHL5; sense CAGGCCGCCUUGAAUUAAAtt (SEQ ID NO 23) (sense CAGGCCGCCUUGAAUUAAANN; antisense UUUAAUUCAAGGCGGCCUGNN; listed as RNA, chemistry not given here)",eight of the eleven

# From US11946094B2, “Combination therapies and methods of use thereof” (Augusta University Research Institute, Inc., priority 2017, dated 2024)
